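Each compound was tested at five concentrations against cells in 96-well plates for 48 hours. GI50 marks 50% less growth. TGI marks complete inhibition of growth.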
Columns and labels:
Experiment in all cases: DTP human tumour cell line panel, 48 h
[1] = test system: 786-0 renal
[2] = test system: A498 renal
[3] = test system: A549 NSCLC
[4] = test system: ACHN renal
[5] = test system: BT-549 breast
[6] = test system: CAKI-1 renal
[7] = test system: CCRF-CEM leukemia
[8] = test system: COLO 205 colon
[9] = test system: DU-145 prostate
[10] = test system: EKVX NSCLC
[11] = test system: HCC-2998 colon
[12] = test system: HCT-116 colon
[13] = test system: HCT-15 colon
[14] = test system: HL-60(TB) leukemia
[15] = test system: HOP-62 NSCLC
[16] = test system: HOP-92 NSCLC
[17] = test system: HS 578T breast
[18] = test system: HT29 colon
[19] = test system: IGROV1 ovarian
[20] = test system: K-562 leukemia
[21] = test system: KM12 colon
[22] = test system: LOX IMVI melanoma
[23] = test system: M14 melanoma
[24] = test system: MALME-3M melanoma
[25] = test system: MCF7 breast
[26] = test system: MDA-MB-231 breast
[27] = test system: MDA-MB-435
[28] = test system: MDA-MB-468 breast
[29] = test system: MOLT-4 leukemia
[30] = test system: NCI-H226 lung
[31] = test system: NCI-H23 lung
[32] = test system: NCI-H460 lung
[33] = test system: NCI-H522 lung
[34] = test system: NCI/ADR-RES ovarian
[35] = test system: OVCAR-3 ovarian
[36] = test system: OVCAR-4 ovarian
[37] = test system: OVCAR-5 ovarian
[38] = test system: OVCAR-8 ovarian
[39] = test system: PC-3 prostate
[40] = test system: RPMI-8226 leukemia
[41] = test system: RXF 393 renal
[42] = test system: SF-268 CNS
[43] = test system: SF-295 CNS
[44] = test system: SF-539 CNS
[45] = test system: SK-MEL-2 melanoma
[46] = test system: SK-MEL-28 melanoma
[47] = test system: SK-MEL-5 melanoma
[48] = test system: SK-OV-3 ovarian
[49] = test system: SN12C renal
[50] = test system: SNB-19 CNS
[51] = test system: SNB-75 CNS
[52] = test system: SW-620 colon
[53] = test system: T-47D breast
[54] = test system: TK-10 renal
[55] = test system: U251 CNS
[56] = test system: UACC-257 melanoma
[57] = test system: UACC-62 melanoma
[58] = test system: UO-31 renal

Structure (SMILES): COc1ccc2[nH]c(O)c(N=NC(=O)Cn3c(-c4ccccc4)nc4cc(C)ccc43)c2c1
- GI50 [1]: 16 µM
- TGI [1]: 30.2 µM
- GI50 [2]: 17.1 µM
- TGI [2]: 32.6 µM
- GI50 [3]: 16.6 µM
- TGI [3]: 36.7 µM
- GI50 [4]: 14.5 µM
- TGI [4]: 27.5 µM
- GI50 [5]: 13.4 µM
- TGI [5]: 27.9 µM
- GI50 [6]: 12.6 µM
- TGI [6]: 27 µM
- GI50 [7]: 17.3 µM
- TGI [7]: 43.6 µM
- GI50 [8]: 17.5 µM
- TGI [8]: 35.1 µM
- GI50 [9]: 19.9 µM
- TGI [9]: 44.4 µM
- GI50 [10]: 11 µM
- TGI [10]: 24.6 µM
- GI50 [11]: 17.5 µM
- TGI [11]: 31.6 µM
- GI50 [12]: 14 µM
- TGI [12]: 28 µM
- GI50 [13]: 15.5 µM
- TGI [13]: 31.1 µM
- GI50 [14]: 17.5 µM
- TGI [14]: 42.3 µM
- GI50 [15]: 16 µM
- TGI [15]: 35.6 µM
- GI50 [16]: 3.3 µM
- TGI [16]: 18 µM
- GI50 [17]: 13.2 µM
- TGI [17]: 46.1 µM
- GI50 [18]: 21.5 µM
- TGI [18]: 55.5 µM
- GI50 [19]: 14.7 µM
- TGI [19]: 29.6 µM
- GI50 [20]: 18 µM
- TGI [20]: 62.4 µM
- GI50 [21]: 18.7 µM
- TGI [21]: 42.5 µM
- GI50 [22]: 14.9 µM
- TGI [22]: 28.3 µM
- GI50 [23]: 15.7 µM
- TGI [23]: 31.2 µM
- GI50 [24]: 14.5 µM
- TGI [24]: 28.8 µM
- GI50 [25]: 13.5 µM
- TGI [25]: 31.6 µM
- GI50 [26]: 13.1 µM
- TGI [26]: 26.4 µM
- GI50 [27]: 16.7 µM
- TGI [27]: 34.7 µM
- GI50 [28]: 14.9 µM
- TGI [28]: 30.2 µM
- GI50 [29]: 10.6 µM
- TGI [29]: 37.2 µM
- GI50 [30]: 14 µM
- TGI [30]: 30.7 µM
- GI50 [31]: 16.7 µM
- TGI [31]: 31.8 µM
- GI50 [32]: 19.3 µM
- TGI [32]: 42.3 µM
- GI50 [33]: 15.2 µM
- TGI [33]: 32.4 µM
- GI50 [34]: 16.8 µM
- TGI [34]: 34.5 µM
- GI50 [35]: 17.5 µM
- TGI [35]: 42.9 µM
- GI50 [36]: 15 µM
- TGI [36]: 36.9 µM
- GI50 [37]: 14.9 µM
- TGI [37]: 28.6 µM
- GI50 [38]: 15.7 µM
- TGI [38]: 37.1 µM
- GI50 [39]: 10.7 µM
- TGI [39]: 26.5 µM
- GI50 [40]: 9.97 µM
- TGI [40]: 35.9 µM
- GI50 [41]: 2.37 µM
- TGI [41]: 12.6 µM
- GI50 [42]: 18.5 µM
- TGI [42]: 64.2 µM
- GI50 [43]: 14.3 µM
- TGI [43]: 29 µM
- GI50 [44]: 14.9 µM
- TGI [44]: 28.5 µM
- GI50 [45]: 14.9 µM
- TGI [45]: 30.4 µM
- GI50 [46]: 16.5 µM
- TGI [46]: 30.9 µM
- GI50 [47]: 15 µM
- TGI [47]: 28.5 µM
- GI50 [48]: 15.8 µM
- TGI [48]: 31.3 µM
- GI50 [49]: 13.5 µM
- TGI [49]: 26.9 µM
- GI50 [50]: 16.2 µM
- TGI [50]: 32.6 µM
- GI50 [51]: 9.86 µM
- TGI [51]: 24.2 µM
- GI50 [52]: 20.1 µM
- TGI [52]: 47.6 µM
- GI50 [53]: 7.33 µM
- TGI [53]: 28.1 µM
- GI50 [54]: 29 µM
- TGI [54]: 77.3 µM
- GI50 [55]: 17 µM
- TGI [55]: 36.2 µM
- GI50 [56]: 15.9 µM
- TGI [56]: 31.7 µM
- GI50 [57]: 12.4 µM
- TGI [57]: 25.5 µM
- GI50 [58]: 7.52 µM
- TGI [58]: 23.7 µM

Reference: PubChem BioAssay (NCI)
